These results are taken from patent US9802993B2, “Method for producing a cell for protein production by treating a cell overexpressing a taurine transporter with methotrexate” (Chugai Seiyaku Kabushiki Kaisha, priority 2007, dated 2017).

Holding throughout (format): cell-based, Chinese hamster
Data set [1] has as its system GC33/DXB11s, GC33/DXB11s/TauT and GC33/DXB11s/TauT/CSAD strains. Description: Sensitivity to 200 nM MTX (survival rate) of anti-glypican-3 antibody-producing strains. Particulars: MTX raised from 20 nM to 200 nM; CHO-S-SFM II/CD-CHO mixed medium; FIG. 2. From the text:
Then, pPur-CSAD expression plasmids (see Referential Example 4 described later, FIG. 6) were co-introduced into the above GC33/DXB11s/TauT strain to prepare a GC33/DXB11s/TauT/CSAD strain in which CSAD was strongly expressed. Subsequently, sensitivity to MTX of the GC33/DXB11s/TauT strain and the GC33/DXB11 s/TauT/C SAD strain was compared with that of the parent GC33/DXB11s strain. Because the parent strain was a strain capable of producing an antibody in which an antibody gene had been amplified to 20 copies or more (relative to the value before MTX treatment) by treatment with 20 nM MTX, the above strains could stably proliferate in the CHO-S-SFM II/CD-CHO mixed medium to which 20 nM MTX had been added.

The next data set concerns CHO DXB 11 s host cells. Kind of data set: Sensitivity to MTX (survival rate) of parent host cells in medium without HT. The conditions noted are these: 10 nM or 20 nM MTX added; CHO-S-SFM II/CD-CHO mixed medium without HT; FIG. 1. An excerpt:
(§1) Into CHO DXB 11 s cells serving as host cells, pHyg-TauT expression plasmids (see Referential Example 2 described later, FIG. 5) were introduced by electroporation to prepare DXB 11 s/TauT host cells in which TauT was strongly expressed. Subsequently, sensitivity to MTX was compared between the DXB 11 s/TauT host cells and the DXB 11 s host cells which were the parent strain.

The next data set has as its system DXB 11 s/TauT host cells. Description: Sensitivity to MTX (survival rate) of host cells strongly expressing TauT in medium without HT. Particulars: 10 nM or 20 nM MTX added; CHO-S-SFM II/CD-CHO mixed medium without HT; FIG. 1.
Description: as §1

Data set [2] has as its system GC33/DXB11s/TauT/CSAD strain. Description: Treatment with a high concentration of MTX: proliferation and antibody production ability. Particulars: for amount of antibody production / number of viable cells: recovered, then cultured in 20 nM MTX, 15 mL tubes, initial 1×10^5 cells/mL, FIG. 4. Here is the method:
The GC33/DXB11s/TauT/CSAD strain, which was most MTX-resistant in Example 1, was subcultured in rotation culture for 28 days using the CHO-S-SFM II/CD-CHO mixed medium to which a high concentration of MTX (100 nM or 200 nM) had been added under the condition of 2×10^5 cells/mL in an initial stage, with the medium replaced every three to five days. […] By 14 days after that, i.e., on the 42nd day, the cells had begun to proliferate. The above two strains in which survival rates were recovered by subculture in the diluted medium (cells treated with 100 nM or 200 nM MTX) were cultured in 15 mL tubes using the CHO-S-SFM II/CD-CHO mixed medium in the presence of 20 nM MTX under the condition of 1×10^5 cells/mL in an initial stage. […] Also, the amount of antibody produced by the TauT/CSAD strain before treatment with a high concentration of MTX was 86 mg/L even when the number of viable cells grew to 19.6×10^5 cells/mL; thus, it was shown that the TauT/CSAD strain before treatment with a high concentration of MTX had the lowest production ability.

SMILES strings stand for the structures.

`CN(Cc1cnc2nc(N)nc(N)c2n1)c1ccc(C(=O)N[C@@H](CCC(=O)O)C(=O)O)cc1` [MTX, methotrexate]: the survival rate result in data set [1] is reported as “the survival rates in all of the above strains decreased”; in the data set on CHO DXB 11 s host cells, “a tendency of accelerated decrease in the survival rate was observed”; in the data set with DXB 11 s/TauT host cells, “reduction in the survival rate was suppressed at a level equivalent to the survival rate observed in the absence of MTX”. Moreover, the cell proliferation result in data set [2] (100 nM or 200 nM MTX, subculture in rotation culture for 28 days, FIG. 3) is reported as “no cell proliferation was observed”. Moreover, the “amount of antibody production” value is recorded as 162 mg/L in data set [2] (strain treated with 100 nM MTX) and 144 mg/L in data set [2] (strain treated with 200 nM MTX). The entries for the “number of viable cells” value in data set [2] (strain treated with 100 nM MTX) and in data set [2] (strain treated with 200 nM MTX) were 22.3×10^5 cells/mL and 18.0×10^5 cells/mL, respectively.
